These results are taken from a melting point compilation (Tetko et al.).

Molecule `O=C1Nc2c(Cl)cccc2C1=O` registered a melting point of 190 °C. In turn, `CCCc1c(C(=O)O)cnn1-c1ccccc1` returned a melting point of 107 to 110 °C. As to `O=C(N[C@H]1CCCC[C@H]1C(=O)O)OCc1ccccc1` (relative stereo), the melting point fell in the range of 130 to 136 °C. `CS(=O)(=O)c1ccc(-c2cn3ccccc3n2)cc1`: the melting point amounted to 242 °C. For `CCOC(=O)C(=O)C(=O)OCC` the value was -30 °C.

With `Cc1ccc(Sc2ncccc2C(=O)O)cc1`, the melting point is 218 to 221 °C. Turning to `CCCCOC(=O)CC(CC(=O)OCCCC)(OC(C)=O)C(=O)OCCCC`, the melting point was -59 °C. In turn, `O=S(=O)(Cl)c1ccc(Br)cc1C(F)(F)F` yielded a melting point of 62 to 63 °C. Molecule `CC(=O)OCN1C(=O)NC(c2ccccc2)(c2ccccc2)C1=O` showed a melting point of 158 °C. With `COC1CCC(CC(=O)O)CC1` (stereo unspecified), the melting point came to 78 °C. In turn, `CCCCCCCCCCCCCCCCCCCCCCCCCC(=O)OC` showed a melting point of 63.8 °C. For `CC1OC(n2ccc(NC(=O)c3ccc(NC(=O)C(C)(N)CO)cc3)nc2=O)CCC1OC1OC(C)C(N(C)C)C(O)C1O` (stereo unspecified) the value was 167 °C. Consider `FC(F)(F)C(F)(F)C(F)(F)C(F)(F)C(F)(F)C(F)(F)C(F)(F)C(F)(F)C(F)(F)C(F)(F)C(F)(F)C(F)(F)I`, for which the melting point is 99 to 101 °C.

`CNC(=O)COc1ccccc1OCC(O)CNC(C)(C)C` (stereo unspecified) registered a melting point of 96.5 °C. For `CC(=O)NC1C(OCc2ccccc2)OC(COC(c2ccccc2)(c2ccccc2)c2ccccc2)C(O)C1O` (stereo unspecified) the value was 102 to 107 °C. For `Oc1c(Cl)cc(Cl)cc1Sc1cc(Cl)cc(Cl)c1O` the value was 188 °C; for `CCCCc1ccc(O)cc1`, 22 °C; for `CNc1ccc(OC)cc1`, 33 to 36 °C.

Take `ClCc1ccc(-c2nccs2)cc1`: the melting point is 67 to 69 °C. On to `Cc1cc(I)cnc1Br`, for which the melting point was 45 °C. For `NC(=S)CCn1cccc(C(F)(F)F)c1=O` the value was 154 to 155 °C; for `NC(=O)c1c(Cl)cc(C(F)(F)F)cc1Cl`, 166 to 169 °C.

Take `CCOC(=O)C(=O)c1cc(C(=O)C(=O)OCC)c([N+](=O)[O-])cc1[N+](=O)[O-]`: the melting point turned out to be 118 °C. The molecule `FC(F)(F)C(F)(F)C(F)(F)C(F)(F)C(F)(F)C(F)(F)C(F)(F)C(F)(F)C(F)(F)F` showed a melting point of -16 °C. Molecule `COc1cccc(C2C(C(=O)OC(C)C)=C(C)NC(C)=C2C(=O)OC(C)C)c1OC` registered a melting point of 141 °C. `CC(C)(C)CCl`: the melting point was -20 °C. The molecule `CC(C)(C)CC(=O)C=C1Nc2ccccc2NC1=CC(=O)CC(C)(C)C` returned a melting point of 220 to 222 °C. In turn, `O=Nc1ccc(Nc2ccccc2)cc1` returned a melting point of 143 °C. With `O=C(C1CCNCC1)N1CCCCCC1`, the melting point was in the range of 41 to 47 °C. As for `CCc1ccc(O)c(C(C)=O)c1O`, the melting point was 130 to 131 °C.

For `CC(C)C(=O)OCCCc1ccccc1`, the melting point was -60 °C. On to `Nc1nnc(C2CCC2)[nH]1`, for which the melting point was 153 to 155 °C. Consider `C=CC1CN2CCC1CC2C12Nc3ccccc3C1(O)CCO2` (stereo unspecified), for which the melting point came out at 186 °C. Regarding `COc1c(C(C)(C)C(C)C)c(OC(C)=O)c(OC(C)=O)c2ccccc12`, the melting point came out at 145 °C.

Take `Clc1cc2c(oc3c(Cl)c(Cl)c(Cl)c(Cl)c32)c(Cl)c1Cl`: the melting point came out at 233 °C. In the case of `CC(=O)C=CC1=C(C)CCCC1(C)C` it was -49 °C.

In the case of `Nc1cc(O)c(Cl)cc1Cl`, the melting point lay in the range of 133 to 137 °C. Molecule `O=C(c1ccccc1)C(c1ccccc1)(c1ccccc1)c1ccccc1` returned a melting point of 182 °C. Molecule `O=C1/C(=C/c2ccc([N+](=O)[O-])cc2)SC(=S)N1CN(CCCl)CCCl` returned a melting point of 284 °C.

As to `CCCCc1nc(CO)c(Cl)[nH]1`, the melting point was 150 to 152 °C.

As for `COCCN(C(=O)CCl)c1c(C)cccc1C`, the melting point is 46.3 °C. For `CCCCCc1ccc(OC(=O)c2ccc(OC(=O)c3ccc(CCCCC)cc3)cc2Cl)cc1` the value was 39 to 122 °C; for `CCCCCCCCC1CCCCC1`, -20 °C.

For the molecule `O=[N+]([O-])c1cc(Br)cc(Br)c1O`, the melting point was in the range of 118 to 119 °C. Take `O=COCC=Cc1ccccc1`: the melting point was 0 °C. `CCCCCCCCNC(=S)NN` displayed a melting point of 47 to 49 °C. In the case of `Cc1nc(-c2ccccc2)ncc1C=O` it was 101 to 103 °C; in that of `O=[N+]([O-])c1ccccc1C=NO`, 100 °C. Molecule `O=C(Cl)OCC(Cl)(Cl)Cl` returned a melting point of 1 °C. In turn, `c1ccc2c3c([nH]c2c1)CCCCC3` returned a melting point of 145 °C. The molecule `O=Cc1[nH]ncc1Br` gave a melting point of 80 to 82 °C. `O=C(c1ccccc1)c1ccc2c(c1)OCCCO2` came in with a melting point of 72 to 75 °C. For `CC(=O)c1ccc(N2CCNCC2)cc1`, the melting point was in the range of 107 to 110 °C. Molecule `CCOC(=O)Nc1ccc2cc3ccc4c(c3nc2c1)COC(=O)N4` showed a melting point of 235 °C. Molecule `CC(=O)c1ccccc1O` registered a melting point of 5 °C. In the case of `C=CCc1cc(OC)c(O)c(C(=O)NCCO)c1` it was 95 °C; in that of `CC1=C(C(=O)OCc2ccccc2)C(c2ccco2)NC(=S)N1` (stereo unspecified), 164 °C. In the case of `CCCCCC=CCC=CCC=CCC=CCCCC(=O)O` it was -49.5 °C; in that of `CCOO`, -100 °C. `Cc1cccc2c1Cc1ccccc1-2` gave a melting point of 85 °C.

`Oc1ccccc1N1CCNCC1` displayed a melting point of 125 °C. In the case of `Cc1ccc(C(c2ccc(C)o2)c2cc(I)ccc2O)o1` it was 104 °C; in that of `Cc1ccc(CBr)cc1`, 35 °C. Turning to `O=C1NN=C(C(F)(F)F)C1=NNc1cc(Cl)ccc1Cl`, the melting point was found to be 214 °C. `CC(=O)NC(Cc1c[nH]c2ccccc12)C(=O)O` (racemic) registered a melting point of 204 to 206 °C.

The molecule `C=C1CC2C3CCC4=CC(=O)C=CC4(C)C3C(O)CC2(C)C1(O)C(=O)CO` (stereo unspecified) had a melting point of 234 °C.

In the case of `Nc1ccc(NC(=O)c2ccc(N)cc2)cc1`, the melting point lay within 203 to 207 °C. In turn, `CSc1nsc(SC)c1C(=O)Nc1ccc(Cl)cc1` came in with a melting point of 168 to 170 °C. For `Clc1cccnc1-c1ccnc(Cl)c1Cl` the value was 169 °C; for `C#CC1(O)CCC2C3CCC4=CC(=O)CCC4(C)C3CCC21C` (stereo unspecified), 269 °C; for `Nc1ncc(S(=O)(=O)c2ccc([N+](=O)[O-])cc2)s1`, 222 to 226 °C. Consider `NC(=S)c1cccc(I)c1`, for which the melting point lay in the range of 120 to 124 °C. Molecule `c1ccc(-c2nsc(N3CCNCC3)n2)cc1` showed a melting point of 93 to 94 °C. For `O=C(O)c1cccc2ccsc12` the value was 176 to 178 °C; for `CC(CO)(NC(=O)c1ccccc1)C(=O)O` (racemic), 153 to 159 °C; for `CC(=O)NC(Cc1ccc(Br)cc1)C(=O)O` (stereo unspecified), 191 to 193 °C.

Regarding `Nc1ncc([N+](=O)[O-])cn1`, the melting point was found to be 237 °C. In the case of `Cc1onc(-c2c(F)cccc2Cl)c1C(N)=S` it was 176 °C; in that of `Oc1c(Cl)c(O)c(Cl)c(O)c1Cl`, 136 °C.

For the molecule `ClCc1noc(-c2cccs2)n1`, the melting point fell in the range of 67 to 68 °C.

Take `Cc1ccc(C)n1CC1CCNCC1`: the melting point was 50 °C. In the case of `O=C(O)c1ccc2occc2c1` it was 189 to 190 °C; in that of `CC(C)=CCCC(C)C1CCC2(C)C3=C(CCC12C)C1(C)CCC(O)C(C)(C)C1CC3` (stereo unspecified), 140 °C; in that of `CC(=CNNc1nc(C)cc(C)n1)c1ccccn1`, 142 to 145 °C. As to `CC(C)(C)OC(=O)N1CC[C@H]1C(=O)O`, the melting point was 105 to 110 °C.

The molecule `CN(C)NN=C1N=CN=C1C(N)=O` registered a melting point of 205 °C. Molecule `CC(CSc1ccc(Cl)cc1)C(=O)O` (stereo unspecified) had a melting point of 63 to 65 °C.

`CCCOCC(C)OCC(C)O` (stereo unspecified) returned a melting point of 7.08 °C. For the molecule `c1ccc2nncnc2c1`, the melting point came to 75.8 °C. For `Nc1ccc(-n2cnc(Cl)c2Cl)cc1` the value was 104 to 105 °C; for `Clc1cccc2ccccc12`, -2.5 °C; for `O=C(Cl)c1cc(I)ccc1F`, 29 °C. In turn, `N#CC1CNc2ccccc2O1` (stereo unspecified) returned a melting point of 63 °C. For `CCCCC(=O)c1ccc(O)cc1` the value was 62 to 65 °C. On to `O=C(C=Cc1ccc([N+](=O)[O-])cc1)c1ccc(Cl)cc1`, for which the melting point is 163 °C.

Consider `CC1(C)OC2CC3C4CC(F)C5=CC(=O)C=CC5(C)C4C(O)CC3(C)C2(C(=O)CO)O1` (stereo unspecified), for which the melting point amounted to 245 °C.

`COC(=O)c1ccc(O)c(Cl)c1` gave a melting point of 107 °C. For `CCCCCCCC[C@@H](O)CO` the value was 60 to 62 °C; for `CC(=O)c1ccc2c(c1)CCO2`, 62 to 64 °C; for `OC1C(Cl)(Cl)CCCC1(Cl)Cl`, 55 °C.

In the case of `COc1ccc(N=C(S)SC)cc1`, the melting point is 111 to 113 °C.

In turn, `O=C1N=NC(=O)c2cc3c(cc21)CCC3` displayed a melting point of 310 °C. `COc1ccc([N+](=O)[O-])cc1N=C=S` displayed a melting point of 105 to 107 °C. Molecule `BrC1Cc2ccccc2C1Br` (stereo unspecified) registered a melting point of 32 °C. In the case of `c1ccc(-c2cn3c(n2)SCC3)cc1`, the melting point was 147 to 148 °C. `O=C1c2ccccc2C(=O)N1CCCCCCCCBr` gave a melting point of 49 to 56 °C. For the molecule `Cc1cc(O)ncc1[N+](=O)[O-]`, the melting point was found to be 189 °C.

`O=C1c2ccccc2C(=O)c2c1ccc1ccccc21` came in with a melting point of 170 °C. Consider `CCCCCCCSCCCCCCC`, for which the melting point stood at 70 °C. For the molecule `FC(F)(F)c1cc(Cl)c(Cl)c(Cl)c1`, the melting point is -10 to -8 °C.

Molecule `O=S(=O)(Cl)c1cccc(Cl)c1Cl` gave a melting point of 61 to 63 °C.

By melting point is commonly meant the temperature of the solid-liquid transition.
